Measured values taken from patent publication US20180353524A1, “CANCER TREATMENT USING 2-DEOXY-2-FLUORO-L-FUCOSE IN COMBINATION WITH A CHECKPOINT INHIBITOR” (SEATTLE GENETICS, INC., priority 2015, published 2018).

What was measured:
dendritic cells = experiment: DC markers in co-cultures of T-cells and DCs (FACS); type: cell-based, human
Protocol: T-cells were isolated from 10 mL of whole blood which was centrifuged first at 1200 rpm (300×g) for 10 min (without brakes). The top layer containing platelets was removed carefully without disrupting the white blood cell layer. Then RosetteSep™ Human T-Cell Enrichment Cocktail (Pan T-cells from StemCell technologies, Vancouver, BC) was added to the remaining blood (500 μL/10 mL blood). This was incubated for 20 min and then 1 mL FBS was added along with 10 mL PBS. Histopaque (20-25 mL) placed in a 50 mL Falcon the prepared blood/PBS solution was overlaid very slowly. This was centrifuged with no brake (25° C., 1500 rpm, 25 min). The top layer was removed and the T-cells in the buffy coat layer were then removed to a new 50 mL tube. The T-cells were washed with PBS, resuspended in 1 mL ACK lysis buffer and topped up to 25 mL, incubated for 5 min, brought up to 50 mL with PBS, and then pelleted. This red blood cell lysis step was repeated a second time.
PBMCs were isolated similarly to the T-cells, except that 90 mL of blood were used and after the removal of platelets the RosetteSep™ Human T-Cell Enrichment Cocktail was not added, instead an equal volume of PBS (90 mL) was added before overlaying on Histopaque. Centrifugation over Histopaque as above results in PBMC-containing buffy coat.
DCs (20000-30000/well) and 10 times as many T-cells were plated in each well in a total of 200 μL/well in DC medium. Co-cultures were incubated 24 h after which cells evaluated for DC maturation markers as described below.
Transwell assays were performed in 24-well plates. Co-cultures were plated out as described above with the final volume per well of 500 μL. For the transwell samples DCs were plated in the well and T-cells placed into the insert. The cells were then incubated 24 h and examined in the same manner as co-cultures without transwells.
DCs were grown as described until day 8 when there were split into two flasks, one with normal media and the other in serum free media. While no serum was present, X-VIVO™ 15 media contains growth factors which help maintain the health of the cultures. The co-culture experiment was performed as above in 48-well plates.
Co-cultures were examined using FACS analysis. After incubation, cells were washed in BD stain buffer (BSA) with Human Fc block (EMD Millipore) and incubated on ice for 30 min. Cells were then stained with fluorescently labeled anti-MHCII, anti-CD86, anti-CD83, and anti-CD40 primary antibodies (BD, 1:100 or 1:50 in BD stain buffer (BSA)) or with appropriate isotype controls (ice, dark, 40 min). Cells were then washed twice in BD stain buffer (BSA) and analyzed on an LSRII flow cytometer.

4T1 cells = experiment: 4T1 mouse tumor study, tumor infiltrating immune cells; type: in vivo, balb/c mice; conditions: 4T1 tumors, 20 mM in drinking water
Protocol: To evaluate the effect of 2FF treatment on tumor infiltrating immune cells balb/c mice were implanted with 4T1 cells (2×10^4 injected sc.) and on the same day started on 20 mM 2FF drinking water. On day 19 (when tumors were approximately ˜250-300 mm^3) or day 28 (when tumors were ˜800-1000 mm^3) tumors were removed, finely minced with a razor blade and suspend in 5 mL cold disassociation buffer (DMEM (high glucose) media, 5% FBS, 1 M HEPES, 2 mg/mL collagenase D (Roche), 0.1 mg/mL DNAse I (50 mg/mL stock in 20 mM Tris-HCL (ph7.5), 1 mM MgCl2, 50% glycerol) and transferred to a Miltenyi C-tube. GentleMACS was run on each tube and the tubes incubated at 37° C. for 40 minutes with continuous rotation. GentleMACS was then run twice and the tubes quickly spun down to collect the tumor in the bottom of the tube. The tube contents was then passed through a 70 μm mesh filter into a 50 mL falcon tube using the rubber stopper of a syringe to gently dissociate the tissue. The filter was washed with 5 mL of cold enzyme inhibitor buffer (DMEM (high glucose), 0.25 M EDTA) and the tube spun down, supernatant discarded and the samples re-suspend in PBS. Cells were then stained with eFluor®506 viability dye (eBioscience) following the manufactures instructions. Cells were washed twice in FACS staining buffer (0.5% FBS, 0.05% NaN3) and immune phenotyped with three different panels of antibodies, each containing an antibody against CD45 to identify immune cells. The cells phenotyped for dendritic cell antigens were stained with the desired antiboides for 30 minutes in the dark on ice, washed twice in staining buffer and resuspended in 1:4 PBS:fixation buffer (Biolgend) and stored at 4° C. overnight. The following day cells were washed in FACS stain buffer and analyzed on the LSRII flow cytometer. The cells phenotyped for T regulatory cells were first stained with the desired antibodies against cell surface antigens for 30 minutes in the dark on ice. […]

A20 tumor vaccine model = experiment: Serum cytokines in A20 vaccine model; type: in vivo; conditions: BALB/c mice, with KLH-Idiotype vaccine vs KLH-Idiotype alone, no depletion
Protocol: KLH-A20 Id Fab was generated as described in Okeley et al PNAS 2012. A20 cells (ATCC) were cultured in RPMI 1640 with 10% FBS, 10 mM HEPES, 1 mM sodium pyruvate, 50 μM 2-mercaptoethanol and penicillin (100 U/ml)/streptomycin (100 μg/ml) (PS) Immunization groups (BALB/c, Harlan) were injected subcutaneously with the KLH-Fab conjugate (50 μg) with TiterMax adjuvant (1:1) on day-21 with a boost on day-7. 2-deoxy-2-fluoro-L-fucose treatment groups received drinking water containing 20 mM 2-deoxy-2-fluoro-L-fucose beginning on day -14. One week after the second vaccination (day 0), all mice received 2.5×10^6 A20 tumor cells (i.v.). 2-deoxy-2-fluoro-L-fucose treatment was continued until day 21 followed by normal drinking water. Depletion of immune cells was accomplished with depleting antibodies administered on days-6, -5, -4, 0 and +7 (200 μg/mouse i.p.). CD4 or CD8 T-cells depletion by anti-CD4 (GK1.5) or -CD8 (53-6.72) antibody was verified in blood at day-1, 7, 14, 21, 29 (FACS analysis). […] Thus CD4 and CD8 T-cells play a role in the combination activity.
Tissue culture supernatants from T-cell/DC co-cultures described previously were collected and assessed for cytokine changes by Luminex assay. Similarly, blood samples from an A20 vaccine model study were allowed to clot and serum was collected for analysis of cytokines (MCYTOMAG01L1X-13 Mouse Cytokine Magnetic Bead Panel, Millipore).

CMV reactive human PMBCs = experiment: In vitro 2FF and anti-PD1 antibody combination in human PBMCs (IFNγ, IL12p70); conditions: T-cells matured with 100-200 μM 2FF, co-culture with DCs, 5 μg/mL CMV antigen
Protocol: CMV reactive human PMBCs from a CMV positive donor (Astarte™ Biologics) were thawed, plated into a 6-well plate and cultured overnight in DC media (30% DMEM 70% X-vivo+2 mM glutamax+10% ATB serum+1% PS). The following day the supernatant was collected to isolate T-cells and the adhering cells were washed in media and then replenished with 2 mL media supplemented with IL4 (100 ng/μL) and GMCSF (200 ng/μL) per well to differentiate and proliferate the adhering monocytes into DCs. The plate was incubated for 4-5 days and then cells were moved into a T25 flask. Each time the cells were passaged (every 2-3 days) new cytokines were given. The T-cells in the supernatant were isolated using StemSep human T-cell enrichment kit (Stemcell technologies). The T-cells were then resuspended in T-cell media (RPMI+10% Fetal calf serum, 1% PS) and spilt into two T25 flasks (with or without 100-200 μM 2FF). CD3CD28 antibody coated beads (Miltenyi Biotec) (20 μL/flask) were added to activate the T-cells. After 24 h IL2 was added (100 ng/μL). Each time the cells were passaged new IL2 and 2FF were added. […]
IFNγ and IL12p70 in the supernatants from 5 day co-cultures were measured using a Lumenix assay and the concentration of each cytokine was calculated using an internal standard curve.

## C[C@@H]1OC(O)[C@@H](F)[C@H](O)[C@@H]1O (stereo partly drawn) [2-deoxy-2-fluoro-L-fucose]
Dendritic cells; DCs alone, with or without treatment
  DC activation and maturation markers, DCs alone: do not show changes in these markers
Dendritic cells; DCs co-cultured 24 h with autologous T-cells expanded with 100-200 μM, serum-containing medium
  DC activation and maturation markers MHCII, CD86, CD83 and CD40 (MFI vs control co-culture): increases in the DC activation and maturation markers MHCII, CD86, CD83 and CD40
Dendritic cells; T-cells and DCs separated by transwell inserts
  DC activation and maturation markers, transwell co-culture: do not occur when transwell inserts are used
Dendritic cells; serum-free medium (no antigen)
  DC activation and maturation markers, serum-free co-culture: does not provide the same increases
4T1 cells; day 19 after implantation
  T regulatory cells in tumor: significantly decreased T regulatory cells
  dendritic cells in tumor: increased dendritic cells which are more activated
4T1 cells; day 28 after implantation
  memory and effector T cells in tumor: increased memory and effector T cells
A20 tumor vaccine model
  serum cytokines important for immune responses (IL15) in A20 tumor vaccine model: specific increases in cytokines
CMV reactive human PMBCs
  antigen specific T cell response (IFNγ, IL12p70) of 2FF matured T-cells vs control cell: elevated antigen specific T cell response
